From patent US12509452B2, “Substituted-isoxazoline-containing aromatic compound, preparation method therefor, herbicidal composition and use thereof” (QINGDAO KINGAGROOT CHEMICAL COMPOUND CO., LTD., priority 2019, dated 2025)

Tests used:
Experiment in all cases: weeding effect in post-emergence stage
Type in all cases: in vivo
Alopecurus japonicus = test system: Alopecurus japonicus
Text: (§1) The activity level criteria for plant damage (i.e., growth control rate) are as follows: • Level 5: growth control rate is above 85%; • Level 4: growth control rate is greater than or equal to 60% and less than 85%; • Level 3: growth control rate is greater than or equal to 40% and less than 60%; • Level 2: growth control rate is greater than or equal to 20% and less than 40%; • Level 1: growth control rate is greater than or equal to 5% and less than 20%; • Level 0: growth control rate is less than 5%.
(§2) The above growth control rates are fresh weight control rates.
(§3) Experiment on weeding effect in post-emergence stage:
(§4) Monocotyledonous and dicotyledonous weed seeds (Descurainia sophia, Capsella bursa-pastoris, Abutilon theophrasti, Galium aparine, Stellaria media, Lithospermum arvense, Rorippa indica, Alopecurus aequalis, Alopecurus japonicus, Beckmannia syzigachne, Sclerochloa dura, Conyza Canadensis, Phleum paniculatum, Veronica didyma Tenore, Bromus japonicus, Aegilops tauschii, Phalaris arundinacea, Amaranthus retroflexus, Chenopodium album, Commelina communis, Sonchus arvensis, Convolvulus arvensis, Cirsium setosum, Solanum nigrum, Acalypha australis, Digitaria sanguinalis, Echinochloa crusgalli, Setaria viridis, Setaria glauca, Leptochloa chinensis, Monochoria vaginalis, Sagittaria trifolia, Scirpus juncoides, Cyperus rotundus, Cyperus iria, Cyperus difformis, Fimbristylis, Portulaca oleracea, Xanthium sibiricum, Pharbitis nil, Conyza japonica, etc.) and major crop seeds (wheat, corn, rice, soybean, cotton, oilseed rape, millet, sorghum, potato, sesame, ricinus, etc.) were placed in plastic pots filled with soil, then covered with 0.5-2 cm of soil, allowed to grow in a good greenhouse environment. After 2 weeks of sowing, the test plants were treated in the 2-3 leaf stage. The tested compounds of the present invention were respectively dissolved in acetone, then added with Tween 80 and 1.5 liter/ha of emulsifiable concentrate of methyl oleate as synergist, diluted with a certain amount of water to obtain a solution with a certain concentration, and sprayed with a spray tower onto the plants. After the application, the plants were cultured for 3 weeks in the greenhouse, and then the experimental results of the weeding were counted. The doses of the used compounds were 500, 250, 125, 60, 15, 7.5 g a.i./ha, and the averages were obtained by repeating for three times.

Conyza japonica = test system: Conyza japonica
Text: as §1, §2, §3, §4

Beckmannia syzigachne = test system: Beckmannia syzigachne
Text: as §1, §2, §3, §4

Rorippa indica = test system: Rorippa indica
Text: as §1, §2, §3, §4

Row | Compound | weeding effect in post-emergence stage, Alopecurus japonicus (activity level) (Alopecurus japonicus; dose 125 g a.i./ha) | weeding effect in post-emergence stage, Conyza japonica (activity level) (Conyza japonica; dose 125 g a.i./ha) | weeding effect in post-emergence stage, Beckmannia syzigachne (activity level) (Beckmannia syzigachne; dose 125 g a.i./ha) | weeding effect in post-emergence stage, Rorippa indica (activity level) (Rorippa indica; dose 15 g a.i./ha) | weeding effect in post-emergence stage, Rorippa indica (activity level) (Rorippa indica; dose 125 g a.i./ha) | weeding effect in post-emergence stage, Alopecurus japonicus (activity level) (Alopecurus japonicus; dose 15 g a.i./ha) | weeding effect in post-emergence stage, Conyza japonica (activity level) (Conyza japonica; dose 15 g a.i./ha) | weeding effect in post-emergence stage, Beckmannia syzigachne (activity level) (Beckmannia syzigachne; dose 15 g a.i./ha) | weeding effect in post-emergence stage, Alopecurus japonicus (activity level) (Alopecurus japonicus; dose 7.5 g a.i./ha) | weeding effect in post-emergence stage, Conyza japonica (activity level) (Conyza japonica; dose 7.5 g a.i./ha) | weeding effect in post-emergence stage, Beckmannia syzigachne (activity level) (Beckmannia syzigachne; dose 7.5 g a.i./ha) | weeding effect in post-emergence stage, Rorippa indica (activity level) (Rorippa indica; dose 7.5 g a.i./ha)
1 | CCOC(=O)C1(COC(C)=O)CC(c2cc(-n3c(=O)cc(C(F)(F)F)n(C)c3=O)c(F)cc2Cl)=NO1 (racemic) [Compound 219] | 5 (Level 5: growth control rate is above 85%) | 5 (Level 5: growth control rate is above 85%) | 5 (Level 5: growth control rate is above 85%) | 4 (Level 4: growth control rate is greater than or equal to 60% and less than 85%) | 5 (Level 5: growth control rate is above 85%) |  |  |  |  |  |  | 
2 | CCOC(=O)C1(COC(=O)C(=O)O)CC(c2cc(-n3c(=O)cc(C(F)(F)F)n(C)c3=O)c(F)cc2Cl)=NO1 (racemic) [Compound 220] | 5 (Level 5: growth control rate is above 85%) | 5 (Level 5: growth control rate is above 85%) | 5 (Level 5: growth control rate is above 85%) |  | 5 (Level 5: growth control rate is above 85%) |  |  |  |  |  |  | 
3 | COC(=O)C1(OC)CC(c2cc(-n3c(=O)cc(C(F)(F)F)n(C)c3=O)c(F)cc2Cl)=NO1 (racemic) [Compound 226] | 5 (Level 5: growth control rate is above 85%) | 5 (Level 5: growth control rate is above 85%) | 5 (Level 5: growth control rate is above 85%) |  | 5 (Level 5: growth control rate is above 85%) |  |  |  |  |  |  | 
4 | CCOC(=O)C1(CC)CC(c2cc(-n3c(=S)cc(C(F)(F)F)n(C)c3=O)c(F)cc2Cl)=NO1 (racemic) [Compound 228] | 5 (Level 5: growth control rate is above 85%) | 5 (Level 5: growth control rate is above 85%) | 5 (Level 5: growth control rate is above 85%) | 5 (Level 5: growth control rate is above 85%) | 5 (Level 5: growth control rate is above 85%) | 5 (Level 5: growth control rate is above 85%) | 5 (Level 5: growth control rate is above 85%) | 4 (Level 4: growth control rate is greater than or equal to 60% and less than 85%) |  |  |  | 
5 | CCOC(=O)C1(CC)CC(c2cc(-n3c(=O)cc(C(F)(F)F)n(C)c3=S)c(F)cc2Cl)=NO1 (racemic) [Compound 229] | 5 (Level 5: growth control rate is above 85%) | 5 (Level 5: growth control rate is above 85%) | 5 (Level 5: growth control rate is above 85%) |  | 5 (Level 5: growth control rate is above 85%) |  |  |  |  |  |  | 
6 | CCOC(=O)C1(CC)CC(c2cc(-n3c(=S)cc(C(F)(F)F)n(C)c3=S)c(F)cc2Cl)=NO1 (racemic) [Compound 230] | 5 (Level 5: growth control rate is above 85%) | 5 (Level 5: growth control rate is above 85%) | 5 (Level 5: growth control rate is above 85%) |  | 5 (Level 5: growth control rate is above 85%) |  |  |  |  |  |  | 
7 | CCOC(=O)C1(C2CC2)CC(c2cc(-n3c(=S)cc(C(F)(F)F)n(C)c3=O)c(F)cc2Cl)=NO1 (racemic) [Compound 231] | 5 (Level 5: growth control rate is above 85%) | 5 (Level 5: growth control rate is above 85%) | 5 (Level 5: growth control rate is above 85%) | 5 (Level 5: growth control rate is above 85%) | 5 (Level 5: growth control rate is above 85%) |  | 5 (Level 5: growth control rate is above 85%) | 4 (Level 4: growth control rate is greater than or equal to 60% and less than 85%) |  |  |  | 
8 | CCOC(=O)[C@]1(CC)CC(c2cc(-n3c(=O)n(C)c(=S)n(C)c3=O)c(F)cc2Cl)=NO1 [3(S)] | 5 (Level 5: growth control rate is above 85%) | 5 (Level 5: growth control rate is above 85%) | 5 (Level 5: growth control rate is above 85%) |  | 5 (Level 5: growth control rate is above 85%) |  |  |  | 5 (Level 5: growth control rate is above 85%) | 4 (Level 4: growth control rate is greater than or equal to 60% and less than 85%) | 4 (Level 4: growth control rate is greater than or equal to 60% and less than 85%) | 5 (Level 5: growth control rate is above 85%)
9 | CCC[C@@]1(C(=O)OCC)CC(c2cc(-n3c(=O)n(C)c(=S)n(C)c3=O)c(F)cc2Cl)=NO1 [4(S)] | 5 (Level 5: growth control rate is above 85%) | 5 (Level 5: growth control rate is above 85%) | 5 (Level 5: growth control rate is above 85%) | 5 (Level 5: growth control rate is above 85%) | 5 (Level 5: growth control rate is above 85%) | 5 (Level 5: growth control rate is above 85%) | 5 (Level 5: growth control rate is above 85%) | 5 (Level 5: growth control rate is above 85%) |  |  |  | 
10 | CCOC(=O)[C@@]1(C2CC2)CC(c2cc(-n3c(=O)n(C)c(=S)n(C)c3=O)c(F)cc2Cl)=NO1 [17(S)] | 5 (Level 5: growth control rate is above 85%) | 5 (Level 5: growth control rate is above 85%) | 5 (Level 5: growth control rate is above 85%) |  | 5 (Level 5: growth control rate is above 85%) |  |  |  |  |  |  | 
11 | CCOC(=O)[C@]1(CBr)CC(c2cc(-n3c(=O)n(C)c(=S)n(C)c3=O)c(F)cc2Cl)=NO1 [31(S)] |  |  |  | 5 (Level 5: growth control rate is above 85%) |  | 5 (Level 5: growth control rate is above 85%) | 5 (Level 5: growth control rate is above 85%) | 5 (Level 5: growth control rate is above 85%) |  |  |  | 
12 | CCOC(=O)[C@]1(C(F)(F)F)CC(c2cc(-n3c(=O)n(C)c(=S)n(C)c3=O)c(F)cc2Cl)=NO1 [33(S)] |  |  |  | 5 (Level 5: growth control rate is above 85%) |  | 5 (Level 5: growth control rate is above 85%) | 5 (Level 5: growth control rate is above 85%) | 5 (Level 5: growth control rate is above 85%) |  |  |  | 
13 | CCOC(=O)[C@@]1(CCF)CC(c2cc(-n3c(=O)n(C)c(=S)n(C)c3=O)c(F)cc2Cl)=NO1 [34(S)] | 5 (Level 5: growth control rate is above 85%) | 5 (Level 5: growth control rate is above 85%) | 5 (Level 5: growth control rate is above 85%) |  | 5 (Level 5: growth control rate is above 85%) |  |  |  |  |  |  | 
14 | CCOC(=O)COC[C@]1(C(=O)OCC)CC(c2cc(-n3c(=O)n(C)c(=S)n(C)c3=O)c(F)cc2Cl)=NO1 [54(S)] |  |  |  | 5 (Level 5: growth control rate is above 85%) |  | 5 (Level 5: growth control rate is above 85%) | 5 (Level 5: growth control rate is above 85%) | 5 (Level 5: growth control rate is above 85%) |  |  |  | 
